What was measured:
HL-60 = experiment: Cytotoxicity against HL60 cells; type: functional, cell-based; settings: Homo sapiens
HCT-8 = experiment: Cytotoxicity against HCT8 cells; type: functional, cell-based; settings: Homo sapiens
MDA-MB-435 = experiment: Cytotoxicity against MDA-MB-435 cells; type: functional, cell-based; settings: Homo sapiens
SF-295 = experiment: Cytotoxicity against SF295 cells; type: functional, cell-based; settings: Homo sapiens
Lytechinus variegatus [1] = experiment: Antimitotic effect in Lytechinus variegatus at first cleavage stage at 10 ug/mL; type: functional
Lytechinus variegatus [2] = experiment: Antimitotic effect in Lytechinus variegatus at first cleavage stage at 100 ug/mL; type: functional
Lytechinus variegatus [3] = experiment: Antimitotic effect in Lytechinus variegatus at third cleavage stage at 10 ug/mL; type: functional
Lytechinus variegatus [4] = experiment: Antimitotic effect in Lytechinus variegatus at third cleavage stage at 100 ug/mL; type: functional
Lytechinus variegatus [5] = experiment: Antimitotic effect in Lytechinus variegatus at blastulae stage at 10 ug/mL; type: functional, Blastula stage
Lytechinus variegatus [6] = experiment: Antimitotic effect in Lytechinus variegatus at blastulae stage at 100 ug/mL; type: functional, Blastula stage

| SMILES | IC50 (HL-60) | IC50 (HCT-8) | IC50 (MDA-MB-435) | IC50 (SF-295) | Activity (Lytechinus variegatus [1]) | Activity (Lytechinus variegatus [2]) | Activity (Lytechinus variegatus [3]) | Activity (Lytechinus variegatus [4]) | Activity (Lytechinus variegatus [5]) | Activity (Lytechinus variegatus [6]) |
| --- | --- | --- | --- | --- | --- | --- | --- | --- | --- | --- |
| C[C@H](NC(=O)Cc1ccc2c(c1)OCO2)C(N)=O | > 50 µM | > 50 µM | > 50 µM | > 50 µM | 76.3% | 76.5% | 68.3% | 78.7% | 92% | 87.7% |
| CC(C)C[C@H](NC(=O)Cc1cc2c(cc1[N+](=O)[O-])OCO2)C(N)=O | > 50 µM | > 50 µM | > 50 µM | 19.1 µM | 88.3% | 94.3% | 77% | 72.7% | 80.3% | 89% |
| NC(=O)[C@H](Cc1ccccc1)NC(=O)Cc1cc2c(cc1[N+](=O)[O-])OCO2 | > 50 µM | > 50 µM | > 50 µM | > 50 µM | 86.3% | 1.7% | 73.3% | 5.3% | 92% | 0% |
| CC(C)(C)OC(=O)NCCCC[C@H](NC(=O)Cc1cc2c(cc1[N+](=O)[O-])OCO2)C(N)=O | 5.4 µM | > 50 µM | 9.2 µM | 31.6 µM | 88.7% | 88.7% | 72.3% | 66.3% | 79.7% | 3.7% |
| CC[C@@H](C)[C@H](NC(=O)Cc1ccc2c(c1)OCO2)C(N)=O | > 50 µM | > 50 µM | > 50 µM | > 50 µM | 89.3% | 87.7% | 62% | 70.3% | 94.7% | 84.7% |
| NC(=O)[C@H](Cc1ccc(Oc2c(Cl)cccc2Cl)cc1)NC(=O)Cc1cc2c(cc1[N+](=O)[O-])OCO2 | > 50 µM | 8.5 µM | 9.9 µM | > 50 µM | 92.3% | 85.3% | 38% | 46% | 1.7% | 15% |
| CCOC(=O)CNC(=O)Cc1ccc2c(c1)OCO2 | 18.7 µM | 4.3 µM | > 50 µM | 13.5 µM | 83% | 79.7% | 71.3% | 15.7% | 83.7% | 0.3% |
| CC(C)[C@H](NC(=O)Cc1ccc2c(c1)OCO2)C(N)=O | > 50 µM | > 50 µM | > 50 µM | > 50 µM | 88% | 70.7% | 67% | 61.7% | 96.7% | 1% |
| COc1cccc2c1C(=O)c1c(O)c3c(c(O)c1C2=O)C[C@@](O)(C(=O)CO)C[C@@H]3O[C@H]1C[C@H](N)[C@H](O)[C@H](C)O1 [DOXORUBICIN] |  | 0.03 µM | 0.83 µM | 0.42 µM | 36% | 16.3% | 0% | 1.5% | 0.3% | 0% |
| C=CCc1ccc2c(c1)OCO2 [SAFROLE] | 104 µM | 36.1 µM | 105 µM | 32.6 µM | 59.5% | 0.7% | 33.7% | 0% | 31.7% | 0.3% |

From ChEMBL document CHEMBL1144576, “Synthesis and antitumour evaluation of peptidyl-like derivatives containing the 1,3-benzodioxole system” (Eur J Med Chem, 2007)
